Assays:
[1] = tested on: TPA induced ear inflammation; test: TPA (phorbolester) induced ear oedema test in the mouse, topical; format: in vivo; conditions: 0.02 mg per application topical; 3 h after TPA; p<0.05
[2] = tested on: carrageenin-induced paw oedema; test: Carrageenin-induced paw oedema test in the rat, oral; format: in vivo; conditions: 150 mg/kg oral, p<0.05
Experimental: Carrageenin, the phlogistic agent of choice for testing antiinflammatory drugs, is a mucopolysaccharide derived from Irish sea moss, Chondrus. Ibuprofen is used as a positive control.
The test article is the composition according to the invention described in example 1 further modified so that the dihydro-triterpenes are predominantly in the form of fatty acid esters (Compound 2). Ibuprofen is obtained from Astion A/S, Denmark. The test article is dissolved in peanut oil, which is used as vehicle.
The study is performed in male SPF Sprague Dawley rats of the stock Mol:SPRD from M & B A/S, Tornbjergvej 40, DK-4623 Lille Skensved. At start of the acclimatisation period the rats are in the weight range of 80-100 g.
The test articles or vehicle are administered orally by gavage in volumes of 20 ml per kg body weight, 0-5 minutes before injection of carrageenin into the foot.
Carrageenin (from Sigma) is prepared as a 1% suspension in sterile 0.9% NaCl-solution. A volume of 0.1 ml is injected through a 25-gauge needle into the plantar tissue of the right hind paw of the rats within 5 minutes after treatment with the test articles.
Immediately before the dosing and carrageenin injection and three and five hours later the foot volume is measured using a plethysmometer LE 7500 from Letica Scientific Instruments, Spain.

| Compound | inhibition of ear swelling [1] [%] | inhibition of paw oedema ([2]; after five hours) [%] | inhibition of paw oedema ([2]; after three hours) [%] |
| --- | --- | --- | --- |
| CCCC(=O)O[C@]1(C(=O)CO)CC[C@H]2[C@@H]3CCC4=CC(=O)CC[C@]4(C)[C@H]3[C@@H](O)C[C@@]21C [Hydrocortisone 17-butyrate, hydrocortisone 17-butyrate] | 90 |  |  |
| CC(C)Cc1ccc(C(C)C(=O)O)cc1 (stereo not drawn) [ibuprofen, Ibuprofen] |  | 88 | 81 |
